Assay results published in patent publication US20090170897A1, “Method of Treating Neuropathic Pain” (Pfizer, Inc., priority 2004, published 2009).

Target: T1, CRTH2 receptor (Homo sapiens, UniProt Q9Y5Y4)
T1 construct: Flag peptide (behind a 'prolac' signal peptide) (N); expressed in transfected cells
T1 sequence (Q9Y5Y4 1-395): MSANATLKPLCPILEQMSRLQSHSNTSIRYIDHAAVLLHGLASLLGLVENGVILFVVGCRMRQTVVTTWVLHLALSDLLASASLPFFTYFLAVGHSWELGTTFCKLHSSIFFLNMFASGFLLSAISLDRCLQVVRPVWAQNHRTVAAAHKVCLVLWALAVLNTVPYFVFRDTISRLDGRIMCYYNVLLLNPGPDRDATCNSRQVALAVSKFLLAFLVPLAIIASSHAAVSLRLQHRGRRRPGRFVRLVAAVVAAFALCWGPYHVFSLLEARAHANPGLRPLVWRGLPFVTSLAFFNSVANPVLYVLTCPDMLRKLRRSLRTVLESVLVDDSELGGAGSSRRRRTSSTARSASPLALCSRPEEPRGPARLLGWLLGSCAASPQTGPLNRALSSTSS
Assay: competition binding of 3H-PGD2 at CRTH2 and DP receptors (selectivity)
Settings: competition with 3H-PGD2 binding, IC50 at both receptors
Method: A CRTH2 receptor ligand or antagonist, can be tested for selectivity for the CRTH2 receptor in comparison with DP. In the assay, the capacity of each test compound to compete with binding of ^3H-PGD2 is measured at both the CRTH2 and DP receptors, and an IC50 value (in μM) is determined. Controls can be set up using cold PGD2 to compete with ^3H-PGD2. Any of the above mentioned binding assay procedures can be used. Selectivity of CRTH2 receptor antagonists should be at least 10 fold compared to other GPCRs especially the D type of prostanoid receptor or DP receptor (N-cyclopropyl-N-[2-methyl-1-(pyridine-3-carbonyl)-1,2,3,4-tetrahydro-quinolin-4-yl]-acetamide is >50 fold selective), preferably it should be at least 100 fold selective and even more preferably at least 1000 fold selective, alternatively the antagonist should be selective for CRTH2 receptor over any of the receptors C3a, C5a, FMLP, LTB4, GPCR0269, GPCR0232 or GPCR0288.

With `CC(=O)N(C1CC1)C1CC(C)N(C(=O)c2cccnc2)c2ccccc21` (stereo not shown) [N-cyclopropyl-N-[2-methyl-1-(pyridine-3-carbonyl)-1,2,3,4-tetrahydro-quinolin-4-yl]-acetamide] the “selectivity for CRTH2 receptor compared to DP receptor” value was greater than 50 fold.
